Laboratory results taken from the kinase profiling compilation of Christmann-Franck et al. (2016).

Assays:
Assay in all cases: KINOMEscan competition binding
Details in all cases: compound 10.0 µM
AURKB (human) = AURKB (human) (UniProt Q96GD4)
AURKC (human) = AURKC (human) (UniProt Q9UQB9)
CAMKK1 (human) = CAMKK1 (human) (UniProt Q8N5S9)
CDK18 (human) = CDK18 (human) (UniProt Q07002)
CDK2 (human) = CDK2 (human) (UniProt P24941)
CDK4 CCND3 (human) = CDK4 CCND3 (human) (UniProt P11802+P30281)
CDKL1 (human) = CDKL1 (human) (UniProt Q00532)
CSNK1E (human) = CSNK1E (human) (UniProt P49674)
DAPK1 (human) = DAPK1 (human) (UniProt P53355)
DDR1 (human) = DDR1 (human) (UniProt Q08345)
FER (human) = FER (human) (UniProt P16591)
FGFR2 (human) = FGFR2 (human) (UniProt P21802)
FGFR4 (human) = FGFR4 (human) (UniProt P22455)
HIPK4 (human) = HIPK4 (human) (UniProt Q8NE63)
IRAK4 (human) = IRAK4 (human) (UniProt Q9NWZ3)
ITK (human) = ITK (human) (UniProt Q08881)
[1] = biological target: JAK1 JH1 catalytic (human) (UniProt P23458)
[2] = test system: KIT (human), P10721 [V559D/V654A]
MAPK11 (human) = MAPK11 (human) (UniProt Q15759)
MKNK1 (human) = MKNK1 (human) (UniProt Q9BUB5)
MUSK (human) = MUSK (human) (UniProt O15146)
NEK7 (human) = NEK7 (human) (UniProt Q8TDX7)
PIK3CA (human) = PIK3CA (human) (UniProt P42336)
PIM2 (human) = PIM2 (human) (UniProt Q9P1W9)
PRKCH (human) = PRKCH (human) (UniProt P24723)
PRPF4B (human) = PRPF4B (human) (UniProt Q13523)
PTK2 (human) = PTK2 (human) (UniProt Q05397)
RIPK2 (human) = RIPK2 (human) (UniProt O43353)
RIPK4 (human) = RIPK4 (human) (UniProt P57078)
SIK3 (human) = SIK3 (human) (UniProt Q9Y2K2)
SRMS (human) = SRMS (human) (UniProt Q9H3Y6)
SRPK2 (human) = SRPK2 (human) (UniProt P78362)
STK3 (human) = STK3 (human) (UniProt Q13188)
STK38 (human) = STK38 (human) (UniProt Q15208)
TEK (human) = TEK (human) (UniProt Q02763)
TLK1 (human) = TLK1 (human) (UniProt Q9UKI8)
TRPM6 (human) = TRPM6 (human) (UniProt Q9BX84)
TYRO3 (human) = TYRO3 (human) (UniProt Q06418)
WEE2 (human) = WEE2 (human) (UniProt P0C1S8)
YSK4 (human) = YSK4 (human) (UniProt Q56UN5)

CSNK1E (human), sequence (P49674 whole entry, looked up): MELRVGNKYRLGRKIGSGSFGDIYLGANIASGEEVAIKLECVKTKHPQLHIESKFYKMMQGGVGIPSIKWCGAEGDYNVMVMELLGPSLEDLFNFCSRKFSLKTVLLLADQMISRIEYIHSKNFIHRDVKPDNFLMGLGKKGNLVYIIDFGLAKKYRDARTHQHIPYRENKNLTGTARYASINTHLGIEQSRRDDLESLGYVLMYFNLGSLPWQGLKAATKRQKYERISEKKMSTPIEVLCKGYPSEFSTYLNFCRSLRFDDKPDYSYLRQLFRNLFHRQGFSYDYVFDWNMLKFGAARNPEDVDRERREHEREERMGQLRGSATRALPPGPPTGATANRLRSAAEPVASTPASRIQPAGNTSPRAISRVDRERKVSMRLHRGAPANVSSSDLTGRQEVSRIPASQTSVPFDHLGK
PIK3CA (human), sequence (P42336 whole entry, looked up): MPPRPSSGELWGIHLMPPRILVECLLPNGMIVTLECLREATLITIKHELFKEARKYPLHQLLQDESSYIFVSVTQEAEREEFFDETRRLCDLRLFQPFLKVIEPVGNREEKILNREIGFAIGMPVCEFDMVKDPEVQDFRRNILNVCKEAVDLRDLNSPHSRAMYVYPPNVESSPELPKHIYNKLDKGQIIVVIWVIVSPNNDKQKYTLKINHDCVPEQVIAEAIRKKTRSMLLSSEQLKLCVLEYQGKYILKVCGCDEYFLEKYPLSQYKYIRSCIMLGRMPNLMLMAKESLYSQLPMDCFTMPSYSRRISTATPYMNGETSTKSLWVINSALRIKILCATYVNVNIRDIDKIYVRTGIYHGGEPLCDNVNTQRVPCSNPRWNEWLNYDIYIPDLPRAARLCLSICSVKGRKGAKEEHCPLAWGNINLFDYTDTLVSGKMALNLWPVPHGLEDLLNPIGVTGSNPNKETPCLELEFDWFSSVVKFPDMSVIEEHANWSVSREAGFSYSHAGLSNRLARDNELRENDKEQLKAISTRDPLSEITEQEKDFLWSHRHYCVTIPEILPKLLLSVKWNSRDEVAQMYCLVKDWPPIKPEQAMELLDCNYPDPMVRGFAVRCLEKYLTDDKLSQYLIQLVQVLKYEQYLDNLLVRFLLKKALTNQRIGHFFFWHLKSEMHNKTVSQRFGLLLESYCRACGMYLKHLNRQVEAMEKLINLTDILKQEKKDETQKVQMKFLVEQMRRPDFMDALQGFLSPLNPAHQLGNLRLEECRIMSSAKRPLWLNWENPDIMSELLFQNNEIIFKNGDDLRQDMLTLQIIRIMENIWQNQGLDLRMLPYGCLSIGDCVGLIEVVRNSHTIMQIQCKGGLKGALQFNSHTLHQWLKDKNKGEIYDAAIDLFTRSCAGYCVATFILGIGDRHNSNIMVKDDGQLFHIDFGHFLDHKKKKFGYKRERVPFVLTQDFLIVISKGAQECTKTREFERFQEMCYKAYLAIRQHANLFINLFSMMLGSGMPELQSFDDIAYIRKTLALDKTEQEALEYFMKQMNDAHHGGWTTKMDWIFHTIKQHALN
DDR1 (human), sequence (Q08345 whole entry, looked up): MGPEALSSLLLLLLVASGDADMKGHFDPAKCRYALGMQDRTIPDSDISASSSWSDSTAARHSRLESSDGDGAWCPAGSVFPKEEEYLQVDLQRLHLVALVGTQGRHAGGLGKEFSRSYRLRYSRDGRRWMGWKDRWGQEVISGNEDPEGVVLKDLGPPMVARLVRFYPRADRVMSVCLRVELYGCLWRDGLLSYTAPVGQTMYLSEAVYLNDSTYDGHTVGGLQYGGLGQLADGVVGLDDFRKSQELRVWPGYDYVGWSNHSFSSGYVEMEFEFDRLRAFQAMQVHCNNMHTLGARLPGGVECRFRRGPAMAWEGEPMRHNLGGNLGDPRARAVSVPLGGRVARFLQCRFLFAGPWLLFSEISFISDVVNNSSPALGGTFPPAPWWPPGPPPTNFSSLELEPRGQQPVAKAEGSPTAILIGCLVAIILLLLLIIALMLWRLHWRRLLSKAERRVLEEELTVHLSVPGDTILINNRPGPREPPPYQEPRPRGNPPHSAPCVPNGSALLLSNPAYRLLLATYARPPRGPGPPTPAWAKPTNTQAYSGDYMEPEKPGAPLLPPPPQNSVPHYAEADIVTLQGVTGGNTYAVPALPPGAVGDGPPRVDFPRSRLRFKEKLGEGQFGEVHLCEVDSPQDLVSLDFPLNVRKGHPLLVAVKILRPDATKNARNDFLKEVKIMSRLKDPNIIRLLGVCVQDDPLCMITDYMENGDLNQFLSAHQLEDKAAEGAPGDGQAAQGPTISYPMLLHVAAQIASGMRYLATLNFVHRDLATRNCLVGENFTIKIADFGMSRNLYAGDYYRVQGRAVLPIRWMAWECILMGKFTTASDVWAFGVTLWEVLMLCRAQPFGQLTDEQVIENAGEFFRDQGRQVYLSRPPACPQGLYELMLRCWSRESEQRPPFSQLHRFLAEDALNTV
TYRO3 (human), sequence (Q06418 whole entry, looked up): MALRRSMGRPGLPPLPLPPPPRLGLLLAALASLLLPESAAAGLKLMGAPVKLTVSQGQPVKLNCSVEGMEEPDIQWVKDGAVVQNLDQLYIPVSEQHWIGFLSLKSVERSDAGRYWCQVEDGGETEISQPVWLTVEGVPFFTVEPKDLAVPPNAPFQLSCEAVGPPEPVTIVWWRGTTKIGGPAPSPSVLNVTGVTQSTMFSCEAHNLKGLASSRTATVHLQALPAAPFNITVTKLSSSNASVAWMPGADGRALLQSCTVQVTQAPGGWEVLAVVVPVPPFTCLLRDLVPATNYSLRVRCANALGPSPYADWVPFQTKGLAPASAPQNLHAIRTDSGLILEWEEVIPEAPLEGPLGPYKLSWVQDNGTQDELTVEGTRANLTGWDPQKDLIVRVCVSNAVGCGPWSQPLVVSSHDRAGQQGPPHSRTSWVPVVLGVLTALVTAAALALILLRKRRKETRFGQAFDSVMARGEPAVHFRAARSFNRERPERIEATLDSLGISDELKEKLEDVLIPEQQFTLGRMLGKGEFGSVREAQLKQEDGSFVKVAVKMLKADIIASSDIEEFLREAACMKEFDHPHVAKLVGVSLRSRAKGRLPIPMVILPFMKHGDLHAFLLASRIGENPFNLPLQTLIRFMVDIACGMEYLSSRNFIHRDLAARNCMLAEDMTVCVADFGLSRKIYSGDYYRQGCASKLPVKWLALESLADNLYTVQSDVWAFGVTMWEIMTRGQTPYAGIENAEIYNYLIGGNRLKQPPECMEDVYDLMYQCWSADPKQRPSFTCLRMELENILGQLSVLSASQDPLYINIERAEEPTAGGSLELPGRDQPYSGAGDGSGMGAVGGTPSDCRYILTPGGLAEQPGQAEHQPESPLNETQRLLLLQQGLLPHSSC
RIPK4 (human), sequence (P57078 whole entry, looked up): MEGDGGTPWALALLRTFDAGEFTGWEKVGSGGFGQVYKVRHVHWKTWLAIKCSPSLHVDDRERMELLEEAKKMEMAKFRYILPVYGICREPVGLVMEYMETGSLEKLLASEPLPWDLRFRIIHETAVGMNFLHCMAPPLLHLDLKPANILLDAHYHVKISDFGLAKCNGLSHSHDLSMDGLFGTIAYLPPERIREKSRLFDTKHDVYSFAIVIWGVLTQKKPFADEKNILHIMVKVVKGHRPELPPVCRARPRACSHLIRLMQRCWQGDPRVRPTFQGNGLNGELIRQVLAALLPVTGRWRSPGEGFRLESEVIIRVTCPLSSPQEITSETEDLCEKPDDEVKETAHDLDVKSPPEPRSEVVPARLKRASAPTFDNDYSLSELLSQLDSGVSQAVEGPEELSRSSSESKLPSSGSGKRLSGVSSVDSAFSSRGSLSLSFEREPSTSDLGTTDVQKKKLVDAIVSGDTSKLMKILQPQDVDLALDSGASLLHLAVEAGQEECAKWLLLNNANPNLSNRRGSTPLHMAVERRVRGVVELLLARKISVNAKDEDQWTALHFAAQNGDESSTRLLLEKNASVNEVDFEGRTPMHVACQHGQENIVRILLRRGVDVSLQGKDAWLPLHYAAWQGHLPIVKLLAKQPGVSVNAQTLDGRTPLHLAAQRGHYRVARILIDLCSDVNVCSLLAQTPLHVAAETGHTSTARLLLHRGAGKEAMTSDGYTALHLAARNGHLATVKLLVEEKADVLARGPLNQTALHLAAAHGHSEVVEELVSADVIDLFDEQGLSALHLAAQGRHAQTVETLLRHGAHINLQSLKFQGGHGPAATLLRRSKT
SRMS (human), sequence (Q9H3Y6 whole entry, looked up): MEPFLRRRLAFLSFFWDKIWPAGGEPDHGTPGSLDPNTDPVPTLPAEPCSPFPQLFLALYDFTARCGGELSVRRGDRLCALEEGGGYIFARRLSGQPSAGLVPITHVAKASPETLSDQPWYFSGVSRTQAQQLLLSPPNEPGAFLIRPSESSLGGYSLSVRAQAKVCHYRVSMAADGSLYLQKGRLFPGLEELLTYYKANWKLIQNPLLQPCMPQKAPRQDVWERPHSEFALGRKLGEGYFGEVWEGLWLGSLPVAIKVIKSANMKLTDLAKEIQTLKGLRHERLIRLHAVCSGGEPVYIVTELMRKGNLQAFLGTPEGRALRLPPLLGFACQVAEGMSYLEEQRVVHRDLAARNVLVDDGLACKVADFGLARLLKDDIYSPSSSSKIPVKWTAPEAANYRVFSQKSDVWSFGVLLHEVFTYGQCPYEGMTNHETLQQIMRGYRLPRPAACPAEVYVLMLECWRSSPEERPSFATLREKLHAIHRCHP
IRAK4 (human), sequence (Q9NWZ3 whole entry, looked up): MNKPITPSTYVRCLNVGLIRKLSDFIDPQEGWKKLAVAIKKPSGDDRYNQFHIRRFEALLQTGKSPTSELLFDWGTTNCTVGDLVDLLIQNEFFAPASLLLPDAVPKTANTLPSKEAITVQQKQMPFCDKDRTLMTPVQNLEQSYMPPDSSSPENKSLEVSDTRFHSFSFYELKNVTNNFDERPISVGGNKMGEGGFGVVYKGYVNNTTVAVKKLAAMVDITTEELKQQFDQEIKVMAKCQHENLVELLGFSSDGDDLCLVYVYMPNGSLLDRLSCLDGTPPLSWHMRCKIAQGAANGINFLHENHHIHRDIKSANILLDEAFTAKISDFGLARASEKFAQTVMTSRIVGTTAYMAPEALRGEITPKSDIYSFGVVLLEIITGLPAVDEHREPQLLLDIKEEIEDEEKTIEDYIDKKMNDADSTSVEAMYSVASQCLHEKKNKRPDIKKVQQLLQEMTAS

Row | Structure (SMILES) | kinase still bound, per cent of control (AURKB (human)) [%] | kinase still bound, per cent of control (AURKC (human)) [%] | kinase still bound, per cent of control (CAMKK1 (human)) [%] | kinase still bound, per cent of control (CDK18 (human)) [%] | kinase still bound, per cent of control (CDK2 (human)) [%] | kinase still bound, per cent of control (CDK4 CCND3 (human)) [%] | kinase still bound, per cent of control (CDKL1 (human)) [%] | kinase still bound, per cent of control (CSNK1E (human)) [%] | kinase still bound, per cent of control (DAPK1 (human)) [%] | kinase still bound, per cent of control (DDR1 (human)) [%] | kinase still bound, per cent of control (FGFR2 (human)) [%] | kinase still bound, per cent of control (FGFR4 (human)) [%] | kinase still bound, per cent of control (HIPK4 (human)) [%] | kinase still bound, per cent of control (IRAK4 (human)) [%] | kinase still bound, per cent of control (ITK (human)) [%] | kinase still bound, per cent of control [1] [%] | kinase still bound, per cent of control (MAPK11 (human)) [%] | kinase still bound, per cent of control (MKNK1 (human)) [%] | kinase still bound, per cent of control (MUSK (human)) [%] | kinase still bound, per cent of control (NEK7 (human)) [%] | also measured
1 | COc1cc(C(=O)N2CCC(N3CCN(C)CC3)CC2)ccc1Nc1ncc2c(n1)N(C)c1ccccc1C(=O)N2C | 38 | 50 | 73 | 100 | 100 | 100 | 78 | 95 | 73 | 100 | 95 | 28 | 100 | 83 | 82 | 100 | 60 | 50 | 99 | 100 | kinase still bound, per cent of control (FER (human)): 51%; kinase still bound, per cent of control [2]: 100%; kinase still bound, per cent of control (PIK3CA (human)): 74%; kinase still bound, per cent of control (PIM2 (human)): 100%; kinase still bound, per cent of control (PRKCH (human)): 100%; kinase still bound, per cent of control (PRPF4B (human)): 93%; kinase still bound, per cent of control (PTK2 (human)): 34%; kinase still bound, per cent of control (RIPK2 (human)): 100%; kinase still bound, per cent of control (RIPK4 (human)): 74%; kinase still bound, per cent of control (SIK3 (human)): 100%; kinase still bound, per cent of control (SRMS (human)): 77%; kinase still bound, per cent of control (SRPK2 (human)): 100%; kinase still bound, per cent of control (STK3 (human)): 71%; kinase still bound, per cent of control (STK38 (human)): 96%; kinase still bound, per cent of control (TEK (human)): 100%; kinase still bound, per cent of control (TLK1 (human)): 100%; kinase still bound, per cent of control (TRPM6 (human)): 100%; kinase still bound, per cent of control (TYRO3 (human)): 100%; kinase still bound, per cent of control (WEE2 (human)): 100%; kinase still bound, per cent of control (YSK4 (human)): 99%
2 | O=c1cc(N2CCOCC2)oc2c(-c3cccc4c3sc3ccccc34)cccc12 | 100 | 100 | 85 | 100 | 75 | 100 | 87 | 76 | 72 | 100 | 82 | 99 | 74 | 99 | 100 | 100 | 90 | 100 | 100 | 100 | kinase still bound, per cent of control (FER (human)): 100%; kinase still bound, per cent of control [2]: 100%; kinase still bound, per cent of control (PIK3CA (human)): 22%; kinase still bound, per cent of control (PIM2 (human)): 84%; kinase still bound, per cent of control (PRKCH (human)): 100%; kinase still bound, per cent of control (PRPF4B (human)): 78%; kinase still bound, per cent of control (PTK2 (human)): 70%; kinase still bound, per cent of control (RIPK2 (human)): 91%; kinase still bound, per cent of control (RIPK4 (human)): 100%; kinase still bound, per cent of control (SIK3 (human)): 92%; kinase still bound, per cent of control (SRMS (human)): 62%; kinase still bound, per cent of control (SRPK2 (human)): 78%; kinase still bound, per cent of control (STK3 (human)): 85%; kinase still bound, per cent of control (STK38 (human)): 100%; kinase still bound, per cent of control (TEK (human)): 100%; kinase still bound, per cent of control (TLK1 (human)): 71%; kinase still bound, per cent of control (TRPM6 (human)): 100%; kinase still bound, per cent of control (TYRO3 (human)): 100%; kinase still bound, per cent of control (WEE2 (human)): 100%; kinase still bound, per cent of control (YSK4 (human)): 100%
3 | NC(=O)Nc1cc(-c2cccc(F)c2)sc1C(=O)N[C@@H]1CCCNC1 | 4.8 | 0.7 | 7 | 100 | 93 | 92 | 46 | 11 | 0.1 | 10 | 11 | 13 | 38 | 0 | 0.55 | 17 | 77 | 6 | 18 | 72 | kinase still bound, per cent of control (PIK3CA (human)): 100%; kinase still bound, per cent of control (PIM2 (human)): 57%; kinase still bound, per cent of control (PRKCH (human)): 1.4%; kinase still bound, per cent of control (PRPF4B (human)): 7.4%; kinase still bound, per cent of control (PTK2 (human)): 0.1%; kinase still bound, per cent of control (RIPK2 (human)): 40%; kinase still bound, per cent of control (RIPK4 (human)): 0%; kinase still bound, per cent of control (SIK3 (human)): 6.2%; kinase still bound, per cent of control (SRMS (human)): 0%; kinase still bound, per cent of control (SRPK2 (human)): 4.4%; kinase still bound, per cent of control (STK38 (human)): 4%; kinase still bound, per cent of control (TEK (human)): 17%; kinase still bound, per cent of control (TLK1 (human)): 0.9%; kinase still bound, per cent of control (TRPM6 (human)): 74%; kinase still bound, per cent of control (TYRO3 (human)): 3.2%; kinase still bound, per cent of control (WEE2 (human)): 91%; kinase still bound, per cent of control (YSK4 (human)): 0%
4 | COCC(=O)NC/C=C/c1ccc2ncnc(Nc3ccc(Oc4ccc(C)nc4)c(C)c3)c2c1 | 100 | 67 | 96 | 99 | 92 | 100 | 69 | 100 | 76 | 52 | 100 | 100 | 95 | 100 | 92 | 100 | 100 | 100 | 100 | 73 | kinase still bound, per cent of control (FER (human)): 100%; kinase still bound, per cent of control [2]: 88%; kinase still bound, per cent of control (PIK3CA (human)): 100%; kinase still bound, per cent of control (PIM2 (human)): 100%; kinase still bound, per cent of control (PRKCH (human)): 100%; kinase still bound, per cent of control (PRPF4B (human)): 93%; kinase still bound, per cent of control (RIPK2 (human)): 26%; kinase still bound, per cent of control (RIPK4 (human)): 100%; kinase still bound, per cent of control (SIK3 (human)): 76%; kinase still bound, per cent of control (SRMS (human)): 71%; kinase still bound, per cent of control (SRPK2 (human)): 92%; kinase still bound, per cent of control (STK3 (human)): 82%; kinase still bound, per cent of control (STK38 (human)): 73%; kinase still bound, per cent of control (TEK (human)): 100%; kinase still bound, per cent of control (TLK1 (human)): 79%; kinase still bound, per cent of control (TRPM6 (human)): 100%; kinase still bound, per cent of control (TYRO3 (human)): 80%; kinase still bound, per cent of control (WEE2 (human)): 81%; kinase still bound, per cent of control (YSK4 (human)): 100%
